Patent US11602521B2, “N,N-dimethyltryptamine compositions and methods” (ATAI Life Sciences AG, priority 2021, dated 2023)
Like-named read-outs stand apart in the source and are kept apart here.

Test: DMT plasma concentration after a single SC injection of DMT succinate to rats
Type: in vivo
Conditions: for DMT plasma concentration: rats; for AUC0-24 hr/Dose / AUCTlast/Dose / Cmax/Dose / Tlast / AUC(0-t) / Tmax: Day 1, rats; for Cmax: both sexes, Day 1, rats males and females combined; for Cmax / AUC(0-t) / Tmax: rat, plasma; for AUC(0-t): sc
Description: Example 2: Study of DMT Succinate Administered Subcutaneously

[1] = 5 mg/kg DMT succinate single SC
[2] = 10 mg/kg DMT succinate single SC

Structure (SMILES): CN(C)CCc1c[nH]c2ccccc12 [DMT, N,N-dimethyltryptamine]
- DMT plasma concentration (5 mg/kg DMT succinate SC, Time 0.5 h): 228
- DMT plasma concentration (5 mg/kg DMT succinate SC, Time 1 h): 202
- DMT plasma concentration (5 mg/kg DMT succinate SC, Time 2 h): 27.1
- DMT plasma concentration (5 mg/kg DMT succinate SC, Time 4 h): 0
- DMT plasma concentration (5 mg/kg DMT succinate SC, Time 8 h): 0
- DMT plasma concentration (5 mg/kg DMT succinate SC, Time 12 h): 0
- DMT plasma concentration (5 mg/kg DMT succinate SC, Time 24 h): 0
- AUC0-24 hr/Dose [1]: 61.1 kg·ng·h/mL/mg
- AUCTlast/Dose [1]: 55.7 kg·ng·h/mL/mg
- Cmax/Dose [1]: 45.5 kg·ng/mL/mg
- Tlast [1]: 2 h
- DMT plasma concentration (10 mg/kg DMT succinate SC, Time 0.5 h): 836
- DMT plasma concentration (10 mg/kg DMT succinate SC, Time 1 h): 1260
- DMT plasma concentration (10 mg/kg DMT succinate SC, Time 2 h): 1170
- DMT plasma concentration (10 mg/kg DMT succinate SC, Time 4 h): 149
- DMT plasma concentration (10 mg/kg DMT succinate SC, Time 8 h): 0.707
- DMT plasma concentration (10 mg/kg DMT succinate SC, Time 12 h): 0
- DMT plasma concentration (10 mg/kg DMT succinate SC, Time 24 h): 0
- AUC0-24 hr/Dose [2]: 143 kg·ng·h/mL/mg
- AUCTlast/Dose [2]: 142 kg·ng·h/mL/mg
- Cmax/Dose [2]: 50.5 kg·ng/mL/mg
- Tlast [2]: 8 h
- Cmax [1]: 0.228 µg/mL
- Cmax [2]: 1.26 µg/mL
- AUC(0-t) (5 mg/kg, 5 mg/kg DMT succinate single SC, read-out: AUC0-24 hr): 0.306 µg·h/mL
- AUC(0-t) (5 mg/kg, 5 mg/kg DMT succinate single SC, read-out: AUCTlast): 0.278 µg·h/mL
- AUC(0-t) (10 mg/kg, 10 mg/kg DMT succinate single SC, read-out: AUC0-24 hr): 3.56 µg·h/mL
- AUC(0-t) (10 mg/kg, 10 mg/kg DMT succinate single SC, read-out: AUCTlast): 3.56 µg·h/mL
- Tmax [1]: 30 min
- Tmax [2]: 60 min
